We go through four compounds from publication PMC6469291, “2-Nitroimidazole-Furanoside Derivatives for Hypoxia Imaging—Investigation of Nucleoside Transporter Interaction, ^18F-Labeling and Preclinical PET Imaging” (Pharmaceuticals, 2019).

Like-named read-outs stand apart in the source and are kept apart here. Where only a bound is given, the exact number is not on record here.

Type in all cases: cell-based
One assay deals with T1, hENT2 (SLC29A2) (Homo sapiens, UniProt Q14542).
T1 construct: expressed in transfected cells; host or cells: Saccharomyces cerevisiae
T1 sequence (Q14542 1-456): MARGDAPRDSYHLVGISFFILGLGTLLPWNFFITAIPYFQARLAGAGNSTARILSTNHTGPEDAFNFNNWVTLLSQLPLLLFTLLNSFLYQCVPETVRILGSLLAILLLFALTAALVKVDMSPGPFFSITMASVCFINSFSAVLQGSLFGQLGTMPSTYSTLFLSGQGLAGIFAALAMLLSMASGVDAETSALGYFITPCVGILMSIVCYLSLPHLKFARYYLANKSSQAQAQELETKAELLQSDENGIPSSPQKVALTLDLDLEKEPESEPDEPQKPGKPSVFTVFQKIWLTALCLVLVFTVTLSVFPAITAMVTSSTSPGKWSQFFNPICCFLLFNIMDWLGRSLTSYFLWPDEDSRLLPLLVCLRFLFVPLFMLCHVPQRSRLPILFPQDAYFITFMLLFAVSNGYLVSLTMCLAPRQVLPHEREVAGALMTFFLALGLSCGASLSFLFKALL
The experiment in a line: Inhibition of [^3H]uridine uptake in yeast cells producing recombinant hENT2. The procedure: (§1) The interaction of 2-nitroimidazole sugars with nucleoside transporters was determined by ability of the 2-nitroimidazole sugars to inhibit [^3H]uridine uptake in yeast cells producing recombinant human nucleoside transporters and results expressed as IC50 values.
(§2) Saccharomyces cerevisiae yeast was separately transformed with plasmids (pYPhENT1, pYPhENT2, pYPhCNT1, pYPhCNT2, or pYPhCNT3) encoding hNTs (hENT1, hENT2, hCNT1, hCNT2, or hCNT3, respectively) as described elsewhere. Uptake of 1 µmol/L [^3H]uridine (Moravek Biochemicals) into yeast was measured as previously described using a semi-automated cell harvester (Micro96 HARVESTER; Skatron Instruments, Tranby, Norway). Yeast was incubated at room temperature with 1 µmol/L [^3H]uridine in yeast growth media (pH 7.4) in the presence or absence (uninhibited controls) of graded concentrations (0–3 mM) of test compounds. The following compounds were used for transporter experiments: FAZA, β-FAZA, α-FAZDR, β-FAZDR. Uridine self-inhibition was used to determine maximum inhibition of mediated transport. Concentration–effect curves were subjected to nonlinear regression analysis using Prism software (version 4.03; GraphPad Software Inc.) to obtain the concentration of test compound that inhibited uridine uptake by 50%, relative to that of untreated cells (IC50 values). Each IC50 value determination was conducted with nine concentrations and four replicates per concentration and experiments were repeated two to three times.

Another assay deals with T2, hCNT3 (SLC28A3) (Homo sapiens, UniProt Q9HAS3).
T2 construct: expressed in transfected cells; host or cells: Saccharomyces cerevisiae
T2 sequence (Q9HAS3 1-691): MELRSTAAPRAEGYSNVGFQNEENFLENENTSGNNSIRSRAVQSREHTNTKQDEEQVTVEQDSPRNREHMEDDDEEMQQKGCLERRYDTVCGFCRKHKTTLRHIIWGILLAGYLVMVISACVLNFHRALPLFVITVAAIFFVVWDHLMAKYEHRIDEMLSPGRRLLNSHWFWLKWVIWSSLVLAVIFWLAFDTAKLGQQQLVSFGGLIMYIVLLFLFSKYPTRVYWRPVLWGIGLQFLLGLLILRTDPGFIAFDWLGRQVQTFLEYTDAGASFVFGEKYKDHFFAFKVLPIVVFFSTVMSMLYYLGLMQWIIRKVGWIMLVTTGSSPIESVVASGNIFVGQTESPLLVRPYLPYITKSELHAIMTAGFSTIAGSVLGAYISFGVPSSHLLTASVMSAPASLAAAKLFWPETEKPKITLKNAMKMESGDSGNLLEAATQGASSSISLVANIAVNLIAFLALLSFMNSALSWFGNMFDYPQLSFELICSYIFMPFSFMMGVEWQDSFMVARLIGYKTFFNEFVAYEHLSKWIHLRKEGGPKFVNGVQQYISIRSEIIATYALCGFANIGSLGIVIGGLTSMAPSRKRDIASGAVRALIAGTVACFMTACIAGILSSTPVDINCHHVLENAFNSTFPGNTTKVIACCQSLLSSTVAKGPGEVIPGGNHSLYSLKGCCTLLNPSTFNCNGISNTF
The experiment in a line: Inhibition of [^3H]uridine uptake in yeast cells producing recombinant hCNT3. As for the experimental part:
as §1, §2

The target of another assay is T3, hCNT1 (SLC28A1) (Homo sapiens, UniProt O00337).
T3 construct: expressed in transfected cells; host or cells: Saccharomyces cerevisiae
T3 sequence (O00337 1-649): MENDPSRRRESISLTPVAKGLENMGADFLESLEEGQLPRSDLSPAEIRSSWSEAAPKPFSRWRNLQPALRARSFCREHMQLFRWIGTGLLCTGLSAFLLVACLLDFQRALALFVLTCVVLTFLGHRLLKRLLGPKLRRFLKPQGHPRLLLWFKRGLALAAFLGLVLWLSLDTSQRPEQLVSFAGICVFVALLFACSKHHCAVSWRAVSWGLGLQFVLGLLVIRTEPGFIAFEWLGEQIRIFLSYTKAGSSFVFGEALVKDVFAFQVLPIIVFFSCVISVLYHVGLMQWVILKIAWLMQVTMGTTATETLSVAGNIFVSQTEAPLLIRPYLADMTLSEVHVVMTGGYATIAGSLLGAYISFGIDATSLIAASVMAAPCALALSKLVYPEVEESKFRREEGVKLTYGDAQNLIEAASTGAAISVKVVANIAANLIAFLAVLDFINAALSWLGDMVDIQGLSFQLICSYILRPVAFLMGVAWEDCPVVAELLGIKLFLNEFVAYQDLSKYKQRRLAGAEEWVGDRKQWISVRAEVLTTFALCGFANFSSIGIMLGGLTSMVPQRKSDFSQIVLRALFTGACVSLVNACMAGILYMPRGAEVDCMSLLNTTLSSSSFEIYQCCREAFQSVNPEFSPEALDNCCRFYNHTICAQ
Put plainly: Inhibition of [^3H]uridine uptake in yeast cells producing recombinant hCNT1. The procedure: as §1, §2

A further assay addresses T4, hCNT2 (SLC28A2) (Homo sapiens, UniProt O43868).
T4 construct: expressed in transfected cells; host or cells: Saccharomyces cerevisiae
T4 sequence (O43868 1-658): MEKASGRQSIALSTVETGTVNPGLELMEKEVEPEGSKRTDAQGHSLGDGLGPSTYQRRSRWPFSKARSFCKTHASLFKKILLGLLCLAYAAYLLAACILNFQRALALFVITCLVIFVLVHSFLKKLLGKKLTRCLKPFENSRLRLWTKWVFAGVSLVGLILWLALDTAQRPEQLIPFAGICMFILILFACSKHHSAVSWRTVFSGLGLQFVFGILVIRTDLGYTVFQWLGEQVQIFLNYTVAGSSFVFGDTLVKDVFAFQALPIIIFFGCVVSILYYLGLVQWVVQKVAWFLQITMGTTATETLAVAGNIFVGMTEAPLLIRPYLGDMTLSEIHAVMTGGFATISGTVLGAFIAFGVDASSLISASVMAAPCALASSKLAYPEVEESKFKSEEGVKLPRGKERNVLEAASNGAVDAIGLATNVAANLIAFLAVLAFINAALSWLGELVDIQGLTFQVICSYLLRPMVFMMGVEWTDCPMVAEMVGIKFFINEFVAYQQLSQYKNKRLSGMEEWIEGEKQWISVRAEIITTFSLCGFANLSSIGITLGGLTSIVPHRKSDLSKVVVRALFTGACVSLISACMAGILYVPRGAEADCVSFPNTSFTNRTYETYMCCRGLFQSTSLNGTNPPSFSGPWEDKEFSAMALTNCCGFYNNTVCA
The experiment in a line: Inhibition of [^3H]uridine uptake in yeast cells producing recombinant hCNT2. The procedure:
as §1, §2

The next assay concerns the target T5, hENT1 (SLC29A1) (Homo sapiens, UniProt Q99808).
T5 construct: expressed in transfected cells; host or cells: Saccharomyces cerevisiae
T5 sequence (Q99808 1-456): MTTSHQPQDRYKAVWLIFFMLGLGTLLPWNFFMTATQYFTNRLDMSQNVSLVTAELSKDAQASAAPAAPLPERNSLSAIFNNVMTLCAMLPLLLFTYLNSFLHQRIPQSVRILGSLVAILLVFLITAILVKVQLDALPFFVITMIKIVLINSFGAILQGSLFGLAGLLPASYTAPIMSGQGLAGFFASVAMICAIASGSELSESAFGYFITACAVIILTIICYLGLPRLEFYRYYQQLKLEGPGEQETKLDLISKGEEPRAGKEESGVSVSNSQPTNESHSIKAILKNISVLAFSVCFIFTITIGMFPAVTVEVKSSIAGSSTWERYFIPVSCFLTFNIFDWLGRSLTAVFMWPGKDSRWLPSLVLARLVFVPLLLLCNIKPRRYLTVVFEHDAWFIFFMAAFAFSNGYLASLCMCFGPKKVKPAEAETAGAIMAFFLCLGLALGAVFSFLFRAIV
The experiment in a line: Inhibition of [^3H]uridine uptake in yeast cells producing recombinant hENT1. The procedure:
as §1, §2

The mark [1] stands for this setting: inhibition of 1 µmol/L [^3H]uridine transport, yeast, 0–3 mM test compound, mean ± SE, n = 2–3, NI = no interaction.

Usually IC50 stands for the concentration at which inhibition is half-maximal. On to `O=[N+]([O-])c1nccn1[C@H]1O[C@H](CF)[C@@H](O)[C@@H]1O` [FAZA, 1-(5′-deoxy-5′-fluoro-α-D-arabinofuranosyl)-2-nitroimidazole], for which the IC50 on hENT2 (SLC29A2) (setting [1]) is above 3000 µM; on hCNT3 (SLC28A3), 1380 ± 100 µM; on hCNT1 (SLC28A1), 290 ± 44 µM; at hCNT2 (SLC28A2), 640 ± 10 µM; on hENT1 (SLC29A1) (setting [1]), above 3000 µM. For the same compound, the “IC50 hENT2 (SLC29A2)” value on hENT2 (SLC29A2) (setting [1]) is “no interaction”. In addition, the “IC50 hENT1 (SLC29A1)” value at hENT1 (SLC29A1) (setting [1]) is recorded as “no interaction”.
With `O=[N+]([O-])c1nccn1C1CC(O)C(CF)O1` (stereo not drawn) [α-FAZDR], at hENT2 (SLC29A2) (setting [1]), the IC50 is above 3000 µM and the “IC50 hENT2 (SLC29A2)” value was “no interaction”. Moreover, at hCNT3 (SLC28A3) (setting [1]), the IC50 is above 3000 µM and the “IC50 hCNT3 (SLC28A3)” value is “no interaction”. On hCNT1 (SLC28A1) (setting [1]), the IC50 was above 3000 µM and the “IC50 hCNT1 (SLC28A1)” value is listed as “no interaction”. Also, at hCNT2 (SLC28A2) (setting [1]), the IC50 was above 3000 µM and the “IC50 hCNT2 (SLC28A2)” value is “no interaction”. Moreover, on hENT1 (SLC29A1) (setting [1]), the half-maximal inhibitory concentration (IC50) is above 3000 µM and the “IC50 hENT1 (SLC29A1)” value is “no interaction”.
Regarding `O=[N+]([O-])c1nccn1[C@@H]1O[C@H](CF)[C@@H](O)[C@@H]1O` [β-FAZA, 1-(5′-Deoxy-5′-fluoro-β-D-arabinofuranosyl)-2-nitroimidazole], the IC50 at hENT2 (SLC29A2) was above 3000 µM; at hCNT3 (SLC28A3) it was 2310 ± 352 µM; at hCNT1 (SLC28A1) it was above 3000 µM; at hCNT2 (SLC28A2), above 3000 µM; at hENT1 (SLC29A1), 2070 ± 50 µM.
With `O=[N+]([O-])c1nccn1C1CC(O)C(CF)O1` (stereo not drawn) [β-FAZDR], the half-maximal inhibitory concentration (IC50) was above 3000 µM at hENT2 (SLC29A2), 124 ± 33 µM on hCNT3 (SLC28A3) and 269 ± 4 µM on hCNT1 (SLC28A1).
